According to paper PMC9428248 (2022):

Tests used:
[1] = system: XS 38-206 (RNA, mRNA element) GAGACUGAGGGAGGCAGGCGACGAGUUUGAACUGCGGUACCGGCGGGCAUUCAGUGACCUGACAUCCCAGCUCCACAUCACCCCAGGGACAGCAUAUCAGAGCUUUGAACAGGUAGUGAAUGAACUCUUCCGGGAUGGGGUAAACUGGGGUCGCAUUGUGGCCUUUUUCUCCUUC; assay: fluorescence enhancement; settings: 100 mM KCl; 10 mM Tris pH 7.0, 25 °C, 10 µM RNA, 1 µM NMM
[2] = system: Q2 150-206 (RNA, G4) GAGACUAAUGAACUCUUCCGGGAUGGGGUAAACUGGGGUCGCAUUGUGGCCUUUUUCUCCUUC; assay: fluorescence enhancement; settings: 100 mM KCl; 10 mM Tris pH 7.0, 25 °C, 10 µM RNA, 1 µM NMM

binding [1]: yes
binding [2]: yes
Structure (SMILES): CCc1c(C)c2cc3nc(cc4nc(cc5c(CC)c(C)c(cc1[nH]2)n5C)C(C)=C4CCC(=O)O)C(CCC(=O)O)=C3C
